Data taken from patent US11466017B2, “Heterocyclic inhibitors of PTPN11” (priority 2011, dated 2022).

Tested on: BT474 human breast carcinomas cell line
Experiment: In vivo tumor model, BT474 (HER2+) xenograft
Conditions: BT474 xenograft in CB-17/SCID mice, 100 mg/kg once per day oral gavage, 5 days on/2 days off, 4 weeks
Excerpt: Xenografts were initiated with BT474 human breast carcinomas cell line and maintained by serial subcutaneous transplantation in CB-17/SCID mice (Charles River). On the day of tumor implant, each test mouse received a 1 mm^3 BT474 fragment implanted subcutaneously in the right flank, and tumor growth was monitored as the average size approached the target range of 100 to 150 mm3. About three weeks post-implantation, the animals were randomized and grouped based on tumor volume and mouse body weight. […] Tumors were measured in two dimensions using calipers, and volume was calculated using the formula: Tumor Volume (mm^3)=w^2× ½.

## CC1(N)CCN(c2cnc3c(-c4cccc(Cl)c4Cl)n[nH]c3n2)CC1 [Example 1, 1-(3-(2,3-dichlorophenyl)-1H-pyrazolo[3,4-b]pyrazin-6-yl)-4-methylpiperidin-4-amine]
  tolerability (body weight): tolerated dose
  tumor growth (tumor volume): significant suppression of tumor growth
